In article PMC8748766, “The catalytic activity of TCPTP is auto-regulated by its intrinsically disordered tail and activated by Integrin alpha-1” (Nature Communications, 2022):

T1: TCPTPCAT (residues 1-288) (human, UniProt P17706-2 1-288)
T1 construct: T cell protein tyrosine phosphatase (TCPTP, PTPN2), human, TC45 isoform, catalytic domain residues 1-288, cloned into pMCSG7; used for cross-linking in trans; source: E. coli BL21 (DE3) RIL, purified (His-trap, TEV cleavage, subtraction, SEC); not shown: His6, N-terminal, cleaved
T1 sequence (looked up): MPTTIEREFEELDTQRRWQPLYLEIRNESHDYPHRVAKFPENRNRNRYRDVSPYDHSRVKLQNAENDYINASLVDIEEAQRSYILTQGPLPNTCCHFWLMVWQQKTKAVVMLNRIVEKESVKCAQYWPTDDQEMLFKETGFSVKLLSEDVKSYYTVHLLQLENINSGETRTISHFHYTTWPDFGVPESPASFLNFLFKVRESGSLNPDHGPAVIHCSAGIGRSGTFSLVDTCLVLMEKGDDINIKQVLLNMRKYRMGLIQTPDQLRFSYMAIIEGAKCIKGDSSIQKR

B1: TCPTP_(Tail) (residues 289-387) (domain or fragment, human, UniProt P17706-2 289-387, looked up)
chain: WKELSKEDLSPAFDHSPNKIMTEKYNGNRIGLEEEKLTGDRCTGLSSKMQDTMEENSESALRKRIREDRKATTAQKVQQMKQRLNENERKRKRPRLTDT
notes: T cell protein tyrosine phosphatase (TCPTP, PTPN2), human, TC45 isoform, C-terminal tail residues 289-387, cloned into pMCSG7; used for cross-linking in trans; source: E. coli BL21 (DE3) RIL, purified (His-trap, TEV cleavage, subtraction, heat step 80 °C 10 min, SEC); not shown: His6, N-terminal, cleaved

Tests used:
TCPTP = details: via the cytoplasmic tail of ITGA1; cited from earlier work
[1] = target: T1, TCPTPCAT (residues 1-288); experiment: cross-linking; in trans: TCPTPCAT (1-288) 0.75 μM with TCPTP_Tail (289-387) 75 or 150 μM (1:100 and 1:200), BS3 or DSSO 0 to 1000 μM, 25 mM Hepes pH 7.4, 50 mM NaCl, room temperature 1 h; band cut from SDS-PAGE, LC-MS or LC-MSn; details: both partners purified

Molecule | activation of full-length TCPTP (TCPTP) | binding result [1]
integrin α1: collagen-binding integrin α1 (ITGA1) | activate full-length TCPTP | –
B1 | – | binds
